We go through 37 compounds from patent publication US7425557B2, “Inhibitors of glycogen synthase kinase 3” (Novartis Vaccines and Diagnostics, Inc., priority 1998, dated 2008).

The assay deals with human GSK3β (Homo sapiens, UniProt P49841). The experiment in a line: Screening for GSK3 inhibitory activity using a cell-free assay. Format: biochemical. To be noted: read-out: IC50 with respect to GSK3. The essentials: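 Radiometric cell-free assay with recombinant human GSK3β phosphorylating a biotinylated peptide substrate for 3 h. Reactions were stopped with 50 μM ATP/20 mM EDTA and captured on streptavidin plates. Incorporated radiolabel was counted by scintillation and plotted against compound concentration.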
human GSK3β, sequence (P49841 whole entry): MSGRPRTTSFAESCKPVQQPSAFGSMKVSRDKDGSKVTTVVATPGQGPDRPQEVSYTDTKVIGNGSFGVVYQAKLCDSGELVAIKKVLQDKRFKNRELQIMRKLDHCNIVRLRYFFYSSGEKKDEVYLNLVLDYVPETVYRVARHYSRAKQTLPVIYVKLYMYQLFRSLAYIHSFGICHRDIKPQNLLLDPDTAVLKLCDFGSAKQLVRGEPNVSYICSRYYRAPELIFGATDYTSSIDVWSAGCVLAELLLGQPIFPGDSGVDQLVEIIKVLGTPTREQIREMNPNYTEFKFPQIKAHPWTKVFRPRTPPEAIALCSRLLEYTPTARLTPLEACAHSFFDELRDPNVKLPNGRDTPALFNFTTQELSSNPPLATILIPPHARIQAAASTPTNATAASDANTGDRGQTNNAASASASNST
A word on the IC50: it is the concentration that gives 50% inhibition. Take `N#Cc1ccc(-c2nc(NCCNc3ccc([N+](=O)[O-])cn3)nc(-c3ccc([N+](=O)[O-])cc3)c2C(=O)O)cc1` [4-(4-cyanophenyl)-2-({2-[(5-nitro(2-pyridyl))-amino]ethyl}amino)-6-(4-nitrophenyl)pyrimidine-5-carboxylic acid]: the IC50 was not above 1 µM.

In the case of `NC(=O)c1ccc(-c2ccnc(NCCc3ccc4c(c3)OCO4)n2)cc1`, the concentration for half-maximal inhibition (IC50) is not above 10 µM.

In the case of `O=[N+]([O-])c1ccc(NCCN(CCN2CCOCC2)c2ncc(-n3ccnc3)c(-c3ccc(Cl)cc3Cl)n2)nc1` [[4-(2,4-dichlorophenyl)-5-imidazolylpyrimidin-2-yl](2-morpholin-4-ylethyl){2-[(5-nitro(2-pyridyl))amino]ethyl}amine], the IC50 is not above 1 µM.

With `Cc1cnc(NCCNc2ccccn2)nc1-c1ccc(Cl)cc1` [[4-(4-chlorophenyl)-5-methylpyrimidin-2-yl][2-(2-pyridylamino)ethyl]amine], the IC50 was not above 10 µM.

Turning to `Nc1nc(NCCNc2ncc(N3C(=O)CC(N4CCOCC4)C3=O)c(-c3ccc(Cl)cc3Cl)n2)ccc1[N+](=O)[O-]` (stereo not shown) [1-[2-({2-[(6-amino-5-nitro(2-pyridyl))amino]ethyl}amino)-4-(2,4-dichlorophenyl)pyrimidin-5-yl]-3-morpholin-4-ylpyrrolidine-2,5-dione], the IC50 is not above 1 µM.

With `CN1CC(=O)N(c2cnc(NCCNc3ccc([N+](=O)[O-])c(N)n3)nc2-c2ccc(Cl)cc2Cl)C(=O)C1` [1-[2-({2-[(6-amino-5-nitro(2-pyridyl))amino]ethyl}-amino)-4-(2,4-dichlorophenyl)pyrimidin-5-yl]-4-methylpiperazine-2,6-dione], the IC50 was not above 1 µM.

`CCOC(=O)c1cnc(NCCNc2ccc(N)cn2)nc1-c1ccc(C#N)cc1` [ethyl 2-({2-[(5-amino(2-pyridyl))amino]ethyl}amino)-4-(4-cyanophenyl)pyrimidine-5-carboxylate]: the concentration for half-maximal inhibition (IC50) is not above 10 µM.

Consider `CN(C)CCNC(=O)c1cnc(NCCNc2ccc([N+](=O)[O-])cn2)nc1-c1ccc(C#N)cc1` [N-[2-(dimethylamino)ethyl][4-(4-cyanophenyl)-2-({2-[(5-nitro(2-pyridyl))-amino]ethyl}amino)pyrimidin-5-yl]carboxamide], for which the IC50 was not above 1 µM.

As for `CCOC(=O)c1cnc(NCCNc2ccc([N+](=O)[O-])cn2)nc1-c1ccc(C(C)(C)C)cc1` [ethyl 4-[4-(tert-butyl)-phenyl]-2-({2-[(5-nitro(2-pyridyl))amino]ethyl}amino)pyrimidine-5-carboxylate], the concentration for half-maximal inhibition (IC50) was not above 1 µM.

For the compound `Cc1cnc(CNc2nccc(-c3ccc(C(N)=O)cc3)n2)cn1` [4-(2-{[(5-methylpyrazin-2-yl)methyl]amino}pyrimidin-4-yl)benzamide], the IC50 was not above 10 µM.

Consider `CCOC(=O)c1cnc(NCCNc2ccc([N+](=O)[O-])cn2)nc1-c1cncc(Br)c1` [ethyl 4-(5-bromo(3-pyridyl))-2-({2-[(5-nitro(2-pyridyl))amino]ethyl}amino)pyrimidine-5-carboxylate], for which the 50% inhibitory concentration (IC50) is not above 10 µM.

Consider `O=C(NCc1cccc(Br)c1)c1ccc(-c2ccnc(NCCNc3ccc4ccccc4n3)n2)cc1` [N-[(3-bromophenyl)methyl][4-(2-{[2-(2-quinolylamino)ethyl]amino}pyrimidin-4-yl)phenyl]carboxamide], for which the IC50 was not above 10 µM.

Consider `N#Cc1ccc(-c2nc(NCCNc3ccc([N+](=O)[O-])cn3)ncc2C(=O)OCCN(CCO)CCO)cc1`, for which the IC50 was not above 1 µM.

`O=C(O)c1c(-c2ccc([N+](=O)[O-])cc2)nc(NCCNc2ccc([N+](=O)[O-])cn2)nc1-c1cccc([N+](=O)[O-])c1` [2-({2-[(5-nitro(2-pyridyl))amino]ethyl}amino)-4-(3-nitrophenyl)-6-(4-nitrophenyl)pyrimidine-5-carboxylic acid]: the half-inhibitory concentration (IC50) was not above 10 µM.

Turning to `CCOC(=O)c1cnc(NCCNc2ccc([N+](=O)[O-])cn2)nc1-c1ccc(C)c(C)c1` [ethyl 4-(3,4-dimethylphenyl)-2-[{2-[(5-nitro(2-pyridyl))amino]ethyl}amino)pyrimidine-5-carboxylate], the IC50 was not above 10 µM.

For `N#Cc1cnc(NCCNc2nccc(-c3ccc(C(N)=O)cc3)n2)nc1N` [4-[2-({2-[(4-amino-5-cyano-pyrimidin-2-yl)amino]ethyl}amino)pyrimidin-4-yl]benzamide], the half-inhibitory concentration (IC50) was not above 1 µM.

Regarding `O=[N+]([O-])c1ccc(NCCNc2ccc(-n3ccnc3)c(-c3ccc(Cl)cc3Cl)n2)nc1` [[6-(2,4-dichlorophenyl)-5-imidazolyl(2-pyridyl)]{2-[(5-nitro(2-pyridyl))amino]ethyl}amine], the concentration for half-maximal inhibition (IC50) was not above 1 µM.

With `COc1nc(NCCNc2ncc(-c3ncc[nH]3)c(-c3ccc(Cl)cc3Cl)n2)ccc1[N+](=O)[O-]` [[4-(2,4-dichlorophenyl)-5-imidazol-2-ylpyrimidin-2-yl]{2-[(6-methoxy-5-nitro(2-pyridyl))amino]ethyl}amine], the 50% inhibitory concentration (IC50) was not above 1 µM.

Regarding `CNC(=O)c1cnc(NCCNc2ccc([N+](=O)[O-])cn2)nc1-c1ccc(C#N)cc1` [[4-(4-cyanophenyl)-2-({2-[(5-nitro(2-pyridyl))amino]ethyl}amino)-pyrimidin-5-yl]-N-methylcarboxamide], the IC50 is not above 1 µM.

On to `NC(=O)c1ccc(-c2ccnc(NCCc3ccccn3)n2)cc1` [4-{2-[(2-(2-pyridyl)ethyl)amino]pyrimidin-4-yl}benzamide], for which the concentration for half-maximal inhibition (IC50) is not above 1 µM.

`Cc1noc(-c2cnc(NCCNc3ccc([N+](=O)[O-])cn3)nc2-c2ccc(C#N)cc2)n1` [4-[5-(3-methyl(1,2,4-oxadiazol-5-yl))-2-({2-[(5-nitro(2-pyridyl))amino]-ethyl}amino)pyrimidin-4-yl]benzenecarbonitrile]: the 50% inhibitory concentration (IC50) was not above 1 µM.

As for `CCOC(=O)c1cnc(NCCNc2ccc([N+](=O)[O-])cn2)nc1-c1cccc(C#N)c1` [ethyl 4-(3-cyanophenyl)-2-({2-[(5-nitro(2-pyridyl))amino]ethyl}amino)pyrimidine-5-carboxylate], the 50% inhibitory concentration (IC50) is not above 10 µM.

Regarding `CCCCOC(=O)c1cnc(NCCNc2ccc([N+](=O)[O-])cn2)nc1-c1ccc(C#N)cc1` [butyl 4-(4-cyanophenyl)-2-({2-[(5-nitro(2-pyridyl))amino]ethyl}amino)pyrimidine-5-carboxylate], the IC50 is not above 1 µM.

On to `Cc1cn(-c2ccc(NCCNc3ccc([N+](=O)[O-])c(N)n3)nc2-c2ccc(Cl)cc2Cl)cn1` [{2-[(6-amino-5-nitro(2-pyridyl))amino]ethyl}[6-(2,4-dichlorophenyl)-5-(4-methylimidazolyl)(2-pyridyl)]amine], for which the 50% inhibitory concentration (IC50) was not above 1 µM.

Turning to `CCOC(=O)c1cnc(NCCNc2ccc(C#N)cn2)nc1-c1ccc(C#N)cc1` [ethyl 2-({2-[(5-cyano(2-pyridyl))amino]ethyl}amino)-4-(4-cyanophenyl)pyrimidine-5-carboxylate], the IC50 was not above 1 µM.

For the compound `c1ccc(NCCNc2nccc(-c3cccnc3)n2)nc1` [[2-(2-pyridylamino)ethyl](4-(3-pyridyl)pyrimidin-2-yl)amine], the IC50 is not above 10 µM.

Turning to `N#Cc1ccc(-c2nc(NCCNc3ccc([N+](=O)[O-])cn3)ncc2C(=O)OCc2ccccc2)cc1` [phenylmethyl 4-(4-cyanophenyl)-2-({2-[(5-nitro(2-pyridyl))amino]ethyl}amino)pyrimidine-5-carboxylate], the IC50 is not above 1 µM.

For `COc1cccc(OC)c1CNc1nccc(-c2ccc(C(N)=O)cc2)n1` [4-(2-{[(2,6-dimethoxyphenyl)-methyl]amino}pyrimidin-4-yl)benzamide], the IC50 was not above 10 µM.

On to `NC(=O)c1ccc(-c2ccnc(NCCCOc3ccc4ncccc4c3)n2)cc1` [4-{2-[(3-(6-quinolyloxy)propyl)-amino]pyrimidin-4-yl}benzamide], for which the IC50 was not above 10 µM.

On to `O=C(NCc1cccc(C(F)(F)F)c1)c1ccc(-c2ccnc(NCCNc3ccc([N+](=O)[O-])cn3)n2)cc1` [{4-[2-({2-[(5-nitro(2-pyridyl))amino]ethyl}amino)pyrimidin-4-yl]phenyl}-N-{[3-(trifluoromethyl)phenyl]methyl}carboxamide], for which the half-inhibitory concentration (IC50) is not above 10 µM.

For `CCOC(=O)c1c(CC)nc(NCCNc2ccc(C#N)cn2)nc1-c1ccc(C(N)=O)cc1` [ethyl 4-(4-carbamoylphenyl)-2-({2-[(5-cyano(2-pyridyl))amino]ethyl}amino)-6-ethylpyrimidine-5-carboxylate], the IC50 is not above 1 µM.

As to `CCOC(=O)c1cnc(NCCNc2ccc([N+](=O)[O-])cn2)nc1-c1ccc(Br)cc1` [ethyl 4-(4-bromophenyl)-2-({2-[(5-nitro(2-pyridyl))amino]ethyl}amino)pyrimidine-5-carboxylate], the IC50 was not above 1 µM.

Turning to `CCOC(=O)c1cnc(NCCNc2ccc([N+](=O)[O-])cn2)nc1-c1ccc2ccccc2c1` [ethyl 4-(2-naphthyl)-2-({2-[(5-nitro(2-pyridyl))amino]-ethyl}amino)pyrimidine-5-carboxylate], the half-inhibitory concentration (IC50) is not above 1 µM.

On to `O=[N+]([O-])c1ccc(NCCNc2ncc(-c3ncc[nH]3)c(-c3ccc(F)cc3Cl)n2)nc1` [[4-(2-chloro-4-fluorophenyl)-5-imidazol-2-ylpyrimidin-2-yl]{2-[(5-nitro(2-pyridyl))amino]ethyl}amine], for which the IC50 was not above 1 µM.

Regarding `O=C(NCc1cccc(Br)c1)c1ccc(-c2ccnc(NCCNc3ccc([N+](=O)[O-])cc3)n2)cc1` [N-[(3-bromophenyl)-methyl]{4-[2-({2-[(4-nitrophenyl)amino]ethyl}amino)pyrimidin-4-yl]phenyl}carboxamide], the half-inhibitory concentration (IC50) is not above 10 µM.

For `O=[N+]([O-])c1ccc(NCCNc2nccc(-c3ccc(S(=O)(=O)NCc4cccc(Br)c4)cc3)n2)nc1` [[(3-bromophenyl)methyl]({4-[2-({2-[(5-nitro(2-pyridyl))amino]ethyl}-amino)pyrimidin-4-yl]phenyl}sulfonyl)amine], the IC50 was not above 10 µM.

Regarding `COc1cccc(CNC(=O)c2ccc(-c3ccnc(NCCNc4ccc([N+](=O)[O-])cn4)n3)cc2)c1` [N-[(3-methoxyphenyl)methyl]{4-[2-({2-[(5-nitro(2-pyridyl))amino]ethyl}amino)pyrimidin-4-yl]phenyl}carboxamide], the half-inhibitory concentration (IC50) is not above 1 µM.
